Measured values taken from the supplement of paper PMC10307832.

Key:
Test in all cases: relative viability (nuclei count vs DMSO), 5 days (fraction); higher = more cells survive
Omipalisib = compound: COc1ncc(-c2ccc3nccc(-c4ccnnc4)c3c2)cc1NS(=O)(=O)c1ccc(F)cc1F [Omipalisib]
In short: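 Vehicle-anchored 1536-well plates of lung cancer cell lines, held overnight at 37 °C, were pinned with five library-drug doses (not always all listed) spaced by √10. No medium change followed over the next 5 days, after which the cells were fixed, permeabilised and Hoechst-stained together and imaged at 4×. Nuclei were counted with MetaXpress, and viability is treated-well nuclei over vehicle-well nuclei, taken as a median across plates. Plates passed with control CV below 25% and at least one doubling.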

Omipalisib + Bortezomib = compound: COc1ncc(-c2ccc3nccc(-c4ccnnc4)c3c2)cc1NS(=O)(=O)c1ccc(F)cc1F [Omipalisib] + CC(C)C[C@H](NC(=O)[C@H](Cc1ccccc1)NC(=O)c1cnccn1)B(O)O [Bortezomib] (partner 0.002 µM)
In short: (§1)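 Each reported value is a median over duplicate plates. It expresses relative viability: treated-well nuclei count divided by vehicle-well nuclei count. Lung cancer cell lines in 1536-well plates were dosed by pin tool a day after seeding, alone with one drug or with a fixed anchor-drug dose plus five library-drug doses (not always all listed) in √10 steps, and nuclei were counted after 5 days.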

Omipalisib + Navitoclax = compound: COc1ncc(-c2ccc3nccc(-c4ccnnc4)c3c2)cc1NS(=O)(=O)c1ccc(F)cc1F [Omipalisib] + CC1(C)CCC(c2ccc(Cl)cc2)=C(CN2CCN(c3ccc(C(=O)NS(=O)(=O)c4ccc(N[C@H](CCN5CCOCC5)CSc5ccccc5)c(S(=O)(=O)C(F)(F)F)c4)cc3)CC2)C1 [Navitoclax] (partner 0.5 µM)
In short: as §1

Omipalisib + Foretinib = compound: COc1ncc(-c2ccc3nccc(-c4ccnnc4)c3c2)cc1NS(=O)(=O)c1ccc(F)cc1F [Omipalisib] + COc1cc2c(Oc3ccc(NC(=O)C4(C(=O)Nc5ccc(F)cc5)CC4)cc3F)ccnc2cc1OCCCN1CCOCC1 [Foretinib] (partner 0.25 µM)
In short: as §1

Omipalisib + Lapatinib = compound: COc1ncc(-c2ccc3nccc(-c4ccnnc4)c3c2)cc1NS(=O)(=O)c1ccc(F)cc1F [Omipalisib] + CS(=O)(=O)CCNCc1ccc(-c2ccc3ncnc(Nc4ccc(OCc5cccc(F)c5)c(Cl)c4)c3c2)o1 [Lapatinib] (partner 2 µM)
In short: as §1

Omipalisib + Pictilisib = compound: COc1ncc(-c2ccc3nccc(-c4ccnnc4)c3c2)cc1NS(=O)(=O)c1ccc(F)cc1F [Omipalisib] + CS(=O)(=O)N1CCN(Cc2cc3nc(-c4cccc5[nH]ncc45)nc(N4CCOCC4)c3s2)CC1 [Pictilisib] (partner 1 µM)
In short: as §1

Omipalisib + Crizotinib = compound: COc1ncc(-c2ccc3nccc(-c4ccnnc4)c3c2)cc1NS(=O)(=O)c1ccc(F)cc1F [Omipalisib] + C[C@@H](Oc1cc(-c2cnn(C3CCNCC3)c2)cnc1N)c1c(Cl)ccc(F)c1Cl [Crizotinib] (partner 1 µM)
In short: as §1

Omipalisib + Linsitinib = compound: COc1ncc(-c2ccc3nccc(-c4ccnnc4)c3c2)cc1NS(=O)(=O)c1ccc(F)cc1F [Omipalisib] + C[C@]1(O)C[C@@H](c2nc(-c3ccc4ccc(-c5ccccc5)nc4c3)c3c(N)nccn32)C1 [Linsitinib] (partner 1 µM)
In short: as §1

Omipalisib + Alpelisib = compound: COc1ncc(-c2ccc3nccc(-c4ccnnc4)c3c2)cc1NS(=O)(=O)c1ccc(F)cc1F [Omipalisib] + Cc1nc(NC(=O)N2CCC[C@H]2C(N)=O)sc1-c1ccnc(C(C)(C)C(F)(F)F)c1 [Alpelisib] (partner 2 µM)
In short: as §1

Omipalisib + Olaparib = compound: COc1ncc(-c2ccc3nccc(-c4ccnnc4)c3c2)cc1NS(=O)(=O)c1ccc(F)cc1F [Omipalisib] + O=C(c1cc(Cc2n[nH]c(=O)c3ccccc23)ccc1F)N1CCN(C(=O)C2CC2)CC1 [Olaparib] (partner 8 µM)
In short: as §1

Calu-6
relative viability (Omipalisib; 0.0003 µM): 1.09
relative viability (Omipalisib; 0.003 µM): 0.986
relative viability (Omipalisib; 0.03 µM): 0.861
relative viability (Omipalisib + Bortezomib; first compound 0.0003 µM): 0.982
relative viability (Omipalisib + Bortezomib; first compound 0.003 µM): 0.951
relative viability (Omipalisib + Bortezomib; first compound 0.03 µM): 0.865
relative viability (Omipalisib + Navitoclax; first compound 0.0003 µM): 0.882
relative viability (Omipalisib + Navitoclax; first compound 0.003 µM): 0.848
relative viability (Omipalisib + Navitoclax; first compound 0.03 µM): 0.452
relative viability (Omipalisib + Foretinib; first compound 0.0003 µM): 0.894
relative viability (Omipalisib + Foretinib; first compound 0.003 µM): 0.844
relative viability (Omipalisib + Foretinib; first compound 0.03 µM): 0.754
relative viability (Omipalisib + Lapatinib; first compound 0.0003 µM): 1.05
relative viability (Omipalisib + Lapatinib; first compound 0.003 µM): 1
relative viability (Omipalisib + Lapatinib; first compound 0.03 µM): 0.795
relative viability (Omipalisib + Pictilisib; first compound 0.0003 µM): 0.996
relative viability (Omipalisib + Pictilisib; first compound 0.003 µM): 0.879
relative viability (Omipalisib + Pictilisib; first compound 0.03 µM): 0.775
relative viability (Omipalisib + Crizotinib; first compound 0.0003 µM): 0.904
relative viability (Omipalisib + Crizotinib; first compound 0.003 µM): 0.813
relative viability (Omipalisib + Crizotinib; first compound 0.03 µM): 0.681
relative viability (Omipalisib + Linsitinib; first compound 0.0003 µM): 0.842
relative viability (Omipalisib + Linsitinib; first compound 0.003 µM): 0.931
relative viability (Omipalisib + Linsitinib; first compound 0.03 µM): 0.815
relative viability (Omipalisib + Alpelisib; first compound 0.0003 µM): 0.889
relative viability (Omipalisib + Alpelisib; first compound 0.003 µM): 0.864
relative viability (Omipalisib + Alpelisib; first compound 0.03 µM): 0.755
relative viability (Omipalisib + Olaparib; first compound 0.0003 µM): 0.658
relative viability (Omipalisib + Olaparib; first compound 0.003 µM): 0.625
relative viability (Omipalisib + Olaparib; first compound 0.03 µM): 0.542
